*: point of attachment. EDDnp = O=[N+]([O-])c1ccc(NCCN*)c([N+](=O)[O-])c1
Molecular target: T1, Recombinant KLK2 (Homo sapiens, UniProt P20151)
T1 construct: made in house; host or cells: baculovirus-insect cell line system
Test: Hydrolysis of FRET peptides by recombinant KLK2 (kinetic parameters)
Format: biochemical
Conditions: pH 8.0, 20 mM Tris–HCl, 1 M sodium citrate, 37 °C, KLK2 1.6 nM; three enzymatic reactions, standard errors 5% or less
Excerpt: (§1) Obtained from a baculovirus-insect cell line system, purified, and activated as previously reported,[14] MUGB (4-methylumbelliferyl p-guanidino benzoate hydrochloride) was used for the spectrofluorimetric determination of molar concentrations of active KLK2.[15] KLK3 was obtained and assayed as previously reported.[3]
All of the FRET peptides were obtained by solid-phase peptide synthesis. The purity of FRET peptides to 95% or higher was obtained by semipreparative HPLC on a C18 reversed-phase column and used as protease substrates, as previously reported.[5] Details about the purification and quality of the FRET peptides are provided in the Supporting Information. The enzymatic kinetic measurements were all performed with FRET peptides as previously described.[5]
Five series of FRET peptides derived from Abz-KLRSSK-Q-EDDnp were assayed with KLK2 in 20 mM Tris–HCl, pH 8.0, and 1 M sodium citrate. […] The specificity of subsites S3, S2, S1’, and S2’ was explored by the FRET peptide series Abz-XLRSSKQ-EDDnp (for S3), Abz-KXRSSKQ-EDDnp (for S2), Abz-KLRXSKQ-EDDnp (for S1’), and Abz-KLRSXKQ-EDDnp (for S2’). All of them were hydrolyzed only at R–S or R–X peptide bonds, and the kinetic parameters for their hydrolysis by KLK2 are listed in Table 1.

T1 sequence (P20151 25-261): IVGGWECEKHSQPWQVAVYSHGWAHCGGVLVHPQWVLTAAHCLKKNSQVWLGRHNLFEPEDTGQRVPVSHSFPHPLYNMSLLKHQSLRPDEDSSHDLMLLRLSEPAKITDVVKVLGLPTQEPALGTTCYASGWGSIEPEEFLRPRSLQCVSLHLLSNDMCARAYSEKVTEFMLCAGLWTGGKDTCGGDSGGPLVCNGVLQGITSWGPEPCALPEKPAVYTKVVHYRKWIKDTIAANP

Row | Compound | Km [µM] | kcat [s^–1] | kcat/Km [s^–1 mM^–1]
1 | Abz-XLRSSKQ-EDDnp, X = H: FRET peptide, S3 series, X = H (N-terminal Abz, C-terminal EDDnp; X = H) | 4.2 | 17.2 | 4095
2 | Abz-XLRSSKQ-EDDnp, X = N: FRET peptide, S3 series, X = N (Abz-NLRSSKQ-EDDnp) | 7.8 | 26.7 | 3423
3 | Abz-XLRSSKQ-EDDnp, X = Q: FRET peptide, S3 series, X = Q (Abz-QLRSSKQ-EDDnp) | 5.9 | 25.7 | 4356
4 | Abz-XLRSSKQ-EDDnp, X = R: FRET peptide, S3 series, X = R (Abz-RLRSSKQ-EDDnp) | 3.9 | 22.3 | 5718
5 | Abz-XLRSSKQ-EDDnp, X = S: FRET peptide, S3 series, X = S (Abz-SLRSSKQ-EDDnp) | 3 | 29.8 | 9933
6 | Abz-XLRSSKQ-EDDnp, X = V: FRET peptide, S3 series, X = V [Abz-XLRSSKQ-EDDnp, X = V] (Abz-VLRSSKQ-EDDnp) | 4.7 | 17.9 | 3808

Tested on: KLK3
Test: Hydrolysis by KLK3 of IL-10R2-derived FRET peptides containing F or Y
Format: biochemical, human
Conditions: 2 nM KLK3, 20 mM Tris-HCl, 1 mM EDTA, 1.5 M sodium citrate, pH 7.8, 37 °C
Excerpt: as §1, with “reported.[3] […]” for “reported.[3]”
FRET Peptides with F FRET Peptides with Y
Abz-MNSVNFKNIL-Q-E DD np Abz-FTAQYLSYR-Q-EDD np
Abz-WESPAFAKGN-Q-EDD np Abz – AQYL SYRIF-Q-EDDnp
Abz-KGNLTFT AQY-Q-EDDnp Abz-SSLSKYGDHT-Q-EDD np
Abz-LSYRIFQDKA-Q-EDD np Abz-KIENEYET WT-Q-EDDnp
Abz-LTEADFSSLS-Q-EDD np Abz-TMKNVYNSWT-Q-ED Dnp
Abz-RVRAEFADEH-Q-EDDnp Abz-NSWTYNVQ-Q-EDDnp
Abz-HSDWVNITFAPVD-Q-EDDnp Abz-NVQYWKNG-Q-EDDnp
Abz-SLHMRFL AP K-Q-EDD np Abz-QITPQYDFEV-Q-EDD np
Abz-GTDEKFQ IT P-Q-EDD np Abz – EPWTTYAVQR-Q-EDD np
Conditions of reactions: 2 nM KLK3, 20 mM Tris -HCl, 1 mM EDTA, 1.5 M sodium citrate, pH 7.8, at 37 °C.
The sequence o f FRET peptide with F or Y in the middle of the sequence can be identiﬁed in the IL-
10R2 ectodomain sequence around F or Y, as shown b e l o w. Cysteines were substituted by Alanine (A)
1 MAWSLGSWLGGCLLVSALGMVPPPENVRMNSVNFKNILQWESPAFAKGNLTFTAQYLSYR.
61 IFQDKCMNTTLTECDFSSLSKYGDHTLRVRAEFADEHSDWVNITFCPVDDTIIGPPGMQV.
121 EVL ADSLHMR FL APKIENEY ET W TMKNVYN SWTYNVQYWK NGTDEKFQIT PQYDFEVLRN.
181 LEPW TTYCVQ VRGF LPDRNK AGEWSEPVCE QTTHDETVPS.

Row | Compound | hydrolysis by KLK3 (in words)
7 | Abz – AQYL SYRIF-Q-EDDnp [Abz-AQYLSYRIF-Q-EDDnp, FRET peptide with Y derived from IL-10R2 ectodomain] | resistant to hydrolysis by KLK3
8 | Abz – EPWTTYAVQR-Q-EDD np [Abz-EPWTTYAVQR-Q-EDDnp, FRET peptide with Y derived from IL-10R2 ectodomain] | resistant to hydrolysis by KLK3
9 | Abz-FTAQYLSYR-Q-EDD np [Abz-FTAQYLSYR-Q-EDDnp, FRET peptide with Y derived from IL-10R2 ectodomain] | resistant to hydrolysis by KLK3
10 | Abz-GTDEKFQ IT P-Q-EDD np [Abz-GTDEKFQITP-Q-EDDnp, FRET peptide with F derived from IL-10R2 ectodomain] | resistant to hydrolysis by KLK3
11 | Abz-HSDWVNITFAPVD-Q-EDDnp [FRET peptide with F derived from IL-10R2 ectodomain] | resistant to hydrolysis by KLK3
12 | Abz-KGNLTFT AQY-Q-EDDnp [Abz-KGNLTFTAQY-Q-EDDnp, FRET peptide with F derived from IL-10R2 ectodomain] | resistant to hydrolysis by KLK3
13 | Abz-KIENEYET WT-Q-EDDnp [Abz-KIENEYETWT-Q-EDDnp, FRET peptide with Y derived from IL-10R2 ectodomain] | resistant to hydrolysis by KLK3
14 | Abz-LSYRIFQDKA-Q-EDD np [Abz-LSYRIFQDKA-Q-EDDnp, FRET peptide with F derived from IL-10R2 ectodomain] | resistant to hydrolysis by KLK3
15 | Abz-LTEADFSSLS-Q-EDD np [Abz-LTEADFSSLS-Q-EDDnp, FRET peptide with F derived from IL-10R2 ectodomain] | resistant to hydrolysis by KLK3
16 | Abz-MNSVNFKNIL-Q-E DD np [Abz-MNSVNFKNIL-Q-EDDnp, FRET peptide with F derived from IL-10R2 ectodomain] | resistant to hydrolysis by KLK3
17 | Abz-NSWTYNVQ-Q-EDDnp [FRET peptide with Y derived from IL-10R2 ectodomain] | resistant to hydrolysis by KLK3
18 | Abz-NVQYWKNG-Q-EDDnp [FRET peptide with Y derived from IL-10R2 ectodomain] | resistant to hydrolysis by KLK3
19 | Abz-QITPQYDFEV-Q-EDD np [Abz-QITPQYDFEV-Q-EDDnp, FRET peptide with Y derived from IL-10R2 ectodomain] | resistant to hydrolysis by KLK3
20 | Abz-RVRAEFADEH-Q-EDDnp [FRET peptide with F derived from IL-10R2 ectodomain] | resistant to hydrolysis by KLK3
21 | Abz-SLHMRFL AP K-Q-EDD np [Abz-SLHMRFLAPK-Q-EDDnp, FRET peptide with F derived from IL-10R2 ectodomain] | resistant to hydrolysis by KLK3
22 | Abz-SSLSKYGDHT-Q-EDD np [Abz-SSLSKYGDHT-Q-EDDnp, FRET peptide with Y derived from IL-10R2 ectodomain] | resistant to hydrolysis by KLK3
23 | Abz-T P QYDFEVLR-Q-EDDnp [Abz-TPQYDFEVLR-Q-EDDnp, FRET peptide with F derived from IL-10R2 ectodomain] | resistant to hydrolysis by KLK3
24 | Abz-TMKNVYNSWT-Q-ED Dnp [Abz-TMKNVYNSWT-Q-EDDnp, FRET peptide with Y derived from IL-10R2 ectodomain] | resistant to hydrolysis by KLK3
25 | Abz-VQVRGFLPDR-Q-EDD np [Abz-VQVRGFLPDR-Q-EDDnp, FRET peptide with F derived from IL-10R2 ectodomain] | resistant to hydrolysis by KLK3
26 | Abz-WESPAFAKGN-Q-EDD np (Abz-WESPAFAKGNQ-EDDnp) [Abz-WESPAFAKGN-Q-EDDnp, FRET peptide with F derived from IL-10R2 ectodomain] | resistant to hydrolysis by KLK3

Tested on: KLK2
Test: Effects of salts and glycosaminoglycans on KLK2 hydrolysis of Abz-KLRSSKQ-EDDnp
Format: biochemical, human
Conditions: 20 mM Tris–HCl, 1 mM EDTA, 5.0 μM Abz-KLRSSKQ-EDDnp, [E] = 1.58 nM, 37 °C, pH 8.0
Description: Bovine lung heparin was prepared as previously reported;[16] dermatan sulfate (12 000 Da) and chondroitin sulfate (25 000 Da) were purchased from Seikagaku Kogyo Co. (Tokyo, Japan), and heparan sulfate (16 000 Da) from the bovine lung was a generous gift from Dr. P. Bianchini (Opocrin Research Laboratories, Modena, Italy).
Figure 1 KLK2 hydrolysis of Abz-KLRSSKQ-EDDnp. (A) Effects of sodium citrate, sodium sulfate, and sodium chloride on the FRET-peptide hydrolysis by KLK2. (B) pH profile for the KLK2 activity. (C) Effects of glycosaminoglycans on KLK2 activity. Assays were carried out in 20 mM Tris–HCl, 1 mM EDTA, and 5.0 μM substrate; [E] = 1.58 nM at 37 °C and pH 8.0 for experiments in (A and C).

Row | Compound | effect of salt on KLK2 activity | effect of glycosaminoglycan on KLK2 activity
27 | O=C([O-])CC(O)(CC(=O)[O-])C(=O)[O-].[Na+].[Na+].[Na+] [sodium citrate] | ten times more efficient activator of KLK2 than sodium sulfate | 
28 | chondroitin sulfate |  | inhibitory
29 | dermatan sulfate |  | activate KLK2 in sub- and micromolar concentrations, respectively
30 | heparan sulfate |  | activate KLK2 in sub- and micromolar concentrations, respectively
31 | heparin |  | almost no effect

— article PMC11339918, “Extracellular Domain of IL-10 Receptor Chain-2 (IL-10R2) and Its Arginine-Containing Peptides Are Susceptible Substrates for Human Prostate Kallikrein-2 (KLK2)” (Biochemistry, 2024)
